Results from US20210355106A1, “NEW AMINO-PYRIMIDONYL-PIPERIDINYL DERIVATIVES, A PROCESS FOR THEIR PREPARATION AND PHARMACEUTICAL COMPOSITIONS CONTAINING THEM” (LES LABORATOIRES SERVIER, priority 2018, published 2021).

Key:
USP7 = molecular target: T1, USP7 (Homo sapiens, UniProt Q93009, C315A); assay: Inhibition of USP7 by Fluorescence Intensity (FLINT) readings, Ubiquitin-Rhodamine-110 substrate; format: biochemical; details: 0.25 nM His-His-USP7 (aa208-560), 60 minutes at 30° C. preincubation; Ki determined from IC50 according to Cer et al.
T1 construct: 0.25 nM His-His-USP7 (aa208-560, |C315A|) was incubated with compound; His-His (N)
Outline: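 Kinetic rate of Rhodamine-110 release from ubiquitin substrate (50 nM or 4 μM), read every 3 min for 21 min, after 60 min, 30 °C preincubation of 0.25 nM USP7 catalytic domain C315A with compound. Bicine pH 8.0 buffer, 10% DMSO; 11-point IC50 vs DMSO and no-enzyme controls, converted to Ki.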

[1] = tested on: Z138 mantle cell lymphoma tumour cell lines; assay: In vitro cytotoxicity, MTT assay; format: cell-based; details: Z138 cells, exposed to the test compounds for 96 hours
Protocol: The cytotoxicity studies were evaluated by MTT [3-(4,5-dimethylthiaxol-2-yl)-2,5-diphenyltetrazolium bromide|assay and carried out on Z138 mantle cell lymphoma tumour cell lines. The cells are distributed onto microplates and exposed to the test compounds for 96 hours. MTT is then added for 4 hours and converted by NAD(P)H-dependent cellular oxidoreductase enzymes in forma/an, which has a purple color. The viable cell number is proportional to the production of formazan salts and cell viability can be quantified by the absorbance of the solution at 540 nm with a spectrophotometer (Carmichael et al., Cancer Res. 1987, 47, 936-942).

T1 sequence (Q93009 208-560 C315A): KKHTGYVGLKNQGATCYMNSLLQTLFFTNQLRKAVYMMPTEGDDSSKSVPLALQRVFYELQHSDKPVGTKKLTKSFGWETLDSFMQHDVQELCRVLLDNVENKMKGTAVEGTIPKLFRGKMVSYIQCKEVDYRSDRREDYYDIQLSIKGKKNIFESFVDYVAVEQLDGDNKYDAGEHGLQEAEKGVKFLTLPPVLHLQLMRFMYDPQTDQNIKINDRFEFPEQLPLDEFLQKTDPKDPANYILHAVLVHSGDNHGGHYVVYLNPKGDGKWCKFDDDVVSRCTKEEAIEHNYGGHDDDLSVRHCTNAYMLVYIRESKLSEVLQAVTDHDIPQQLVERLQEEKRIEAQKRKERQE

| Compound | Ki (USP7) [nM] | IC50 ([1]; Homo sapiens, Z-138) [nM] | IC50 [1] [nM] |
| --- | --- | --- | --- |
| Cc1ccc(C2(N3CC[C@@H](C(=O)N4CCC(O)(Cn5cnc(Oc6ccc(F)cc6)c(N)c5=O)CC4)[C@H](c4ccccc4)C3)COC2)cc1 [Example 155] | 97 |  | 588 |
| COc1cc(Oc2ncn(C[C@@]3(O)CCN(C(=O)[C@@H]4CCN(Cc5nccc(C)n5)C[C@H]4c4ccccc4)CC3(F)F)c(=O)c2N)ccc1F [Example 216] | 25.7 | 19.1 |  |
| COc1cc(Oc2ncn(C[C@@]3(O)CCN(C(=O)[C@@H]4CCN(Cc5nccnc5C)C[C@H]4c4ccccc4)CC3(F)F)c(=O)c2N)ccc1F [Example 219, 5-amino-3-[[(4S)-3,3-difluoro-4-hydroxy-1-[(3R,4R)-1-[(3-methylpyrazin-2-yl)methyl]-3-phenyl-piperidine-4-carbonyl]-4-piperidyl]methyl]-6-(4-fluoro-3-methoxy-phenoxy)pyrimidin-4-one] | 30.3 | 23.4 |  |
| Nc1c(Oc2ccc(F)cc2)ncn(CC2(O)CCN(C(=O)[C@@H]3CCN(C4(c5cccc(Cl)c5)COC4)C[C@H]3c3ccccc3)CC2)c1=O [Example 171] | 42.8 | 31.4 |  |
| Nc1c(Oc2ccc(F)cc2)ncn(C[C@@]2(O)CCN(C(=O)[C@@H]3CCN(Cc4ccncn4)C[C@H]3c3ccccc3)CC2(F)F)c1=O [Example 212, 5-amino-3-[[(4S)-3,3-difluoro-4-hydroxy-1-[(3R,4R)-3-phenyl-1-(pyrimidin-4-ylmethyl)piperidine-4-carbonyl]-4-piperidyl]methyl]-6-(4-fluorophenoxy)pyrimidin-4-one] | 34.1 | 21.4 |  |
| Cc1ccnc(C(=O)N2CC[C@@H](C(=O)N3CCC(O)(Cn4cnc(Oc5ccc(F)cc5)c(N)c4=O)CC3)[C@H](c3ccccc3)C2)c1 [Example 94, 5-amino-6-(4-fluorophenoxy)-3-[[4-hydroxy-1-[(3R,4R)-1-(4-methylpyridine-2-carbonyl)-3-phenyl-piperidine-4-carbonyl]-4-piperidyl]methyl]pyrimidin-4-one] | 30 | 49 |  |
| Cc1cc(C)nc(CN2CC[C@@H](C(=O)N3CC[C@](O)(Cn4cnc(Oc5ccc(F)cc5)c(N)c4=O)C(F)(F)C3)[C@H](c3ccccc3)C2)n1 [Example 206, 5-amino-3-[[(4S)-1-[(3R,4R)-1-[(4,6-dimethylpyrimidin-2-yl)methyl]-3-phenyl-piperidine-4-carbonyl]-3,3-difluoro-4-hydroxy-4-piperidyl]methyl]-6(4-fluorophenoxy)pyrimidin-4-one] | 37.2 | 20.5 |  |
| Cc1nc(Br)sc1C(=O)N1CC[C@@H](C(=O)N2CCC(O)(Cn3cnc(Oc4cccc(C(F)(F)F)c4)c(N)c3=O)CC2)[C@H](c2ccccc2)C1 [Example 100, 5-amino-3-[[1-[(3R,4R)-1-(2-bromo-4-methyl-thiazole-5-carbonyl)-3-phenyl-piperidine-4-carbonyl]-4-hydroxy-4-piperidyl]methyl]-6-[3-(trifluoromethyl)phenoxy]pyrimidin-4-one] | 24 | 47.6 |  |

Compounds with a lower Ki (USP7), results first:

| Ki (USP7) [nM] | Compound | IC50 ([1]; Homo sapiens, Z-138) [nM] | IC50 [1] [nM] |
| --- | --- | --- | --- |
| 6.42 | Cc1nc(-c2ccc(N(C)C)nc2)sc1C(=O)N1CC[C@@H](C(=O)N2CCC(O)(Cn3cnc(Oc4ccc(F)cc4)c(N)c3=O)CC2)[C@H](c2ccccc2)C1 [Example 43, 5-amino-3-({1-[(3R,4R)-1-{2-[16-(dimethylamino)pyridin-3-yl-4-methyl-1,3-thiazole-5-carbonyl}-3-phenylpiperidine-4-carbonyl]-4-hydroxypiperidin-4-yl]}methyl)-6-(4-fluorophenoxy)pyrimidin-4(3H)-one] | 1.2 |  |
| 21 | Cn1c(C(=O)N2CC[C@@H](C(=O)N3CCC(O)(Cn4cnc(Oc5ccc(F)cc5)c(N)c4=O)CC3)[C@H](c3ccccc3)C2)cnc1Br [Example 95, 5-amino-3-({1-[(3R,4R)-1-(2-bromo-1-methyl-11H-imidazole-5-carbonyl)-3-phenylpiperidine-4-carbonyl]-4-hydroxypiperidin-4-yl}methyl)-6-(4-fluorophenoxy)pyrimidin-4(3H)-one] | 27 |  |
| 6.6 | Cc1ccc(-c2ncc(CN3CC[C@@H](C(=O)N4CC[C@](O)(Cn5cnc(Oc6ccc(F)cc6)c(N)c5=O)C(F)(F)C4)[C@H](c4ccccc4)C3)s2)cn1 [Example 53] | 3.4 |  |
| 4 | Cc1ccc(-c2nc(C)c(C(=O)N3CC[C@@H](C(=O)N4CCC(O)(Cn5cnc(Oc6ccc(Cl)c(F)c6)c(N)c5=O)CC4)[C@H](c4ccccc4)C3)s2)cn1 [Example 24, 5-amino-6-(4-chloro-3-fluorophenoxy)-3-[(4-hydroxy-1-{(3R,4R)-1-[4-methy-2-(6-methylpyridin-3-yl)-1,3-thiazole-5-carbonyl]-3-phenylpiperidine-4-carbonyl}piperidin-4-yl)methyl]pyrimidin-4(3H)-one] | 9.9 |  |
| 6.7 | Cc1nc(Br)sc1C(=O)N1CC[C@@H](C(=O)N2CC[C@](O)(Cn3cnc(Oc4ccc(F)cc4)c(N)c3=O)C(F)(F)C2)[C@H](c2ccccc2)C1 [Example 41, 5-amino-3-(((4S)-1-[(3R,4R)-1-(2-bromo-4-methyl-1,3-thiazole-5-carbonyl)-3-phenylpiperidine-4-carbonyl]-3,3-difluoro-4-hydroxypiperidin-4-yl}methyl)-6-(4-fluorophenoxy)pyrimidin-4(3H)-one] | 2.5 |  |
| 9.33 | Cc1nc(C2CCC2)sc1C(=O)N1CC[C@@H](C(=O)N2CCC(O)(Cn3cnc(Oc4ccc(F)cc4)c(N)c3=O)CC2)[C@H](c2ccccc2)C1 [Example 165, 5-amino-3-[[1-[(3R,4R)-1-(2-cyclobutyl-4-methyl-thiazole-5-carbonyl)-3-phenyl-piperidine-4-carbonyl]-4-hydroxy-4-piperidyl]methyl]-6-(4-fluorophenoxy)pyrimidin-4-one] | 2.74 |  |
| 4.83 | Cc1cncc(C(=O)N2CC[C@@H](C(=O)N3CC[C@](O)(Cn4cnc(Oc5ccc(F)cc5)c(N)c4=O)C(F)(F)C3)[C@H](c3ccccc3)C2)c1 [Example 157, 5-amino-3-[[(4S)-3,3-difluoro-4-hydroxy-1-[(3R,4R)-1-(5-methylpyridine-3-carbonyl)-3-phenyl-piperidine-4-carbonyl]-4-piperidyl]methyl]-6-(4-fluorophenoxy)pyrimidin-4-one] | 5.18 |  |
| 3.3 | Cc1ccc(-c2c(Cl)sc(C(=O)N3CC[C@@H](C(=O)N4CCC(O)(Cn5cnc(Oc6ccc(F)cc6)c(N)c5=O)CC4)[C@H](c4ccccc4)C3)c2F)cn1 [Example 107] | 7.64 |  |
| 3.47 | Cc1ccc(-c2nc(C)c(C(=O)N3CC[C@@H](C(=O)N4CCC(O)(Cn5cnc(Oc6cccnc6)c(N)c5=O)CC4)[C@H](c4ccccc4)C3)s2)cn1 [Example 169] | 16.6 |  |
| 4.68 | Cc1ccc(-c2cc(F)cc(C(=O)N3CC[C@@H](C(=O)N4CCC(O)(Cn5cnc(Oc6ccc(F)cc6)c(N)c5=O)CC4)[C@H](c4ccccc4)C3)c2)cn1 [Example 121] | 6.4 |  |
| 0.215 | Cc1ccc(-c2nc(C)c(C(=O)N3CC[C@@H](C(=O)N4CC[C@](O)(Cn5cnc(Oc6ccc(CN)cc6)c(N)c5=O)C(F)(F)C4)[C@H](c4ccccc4)C3)s2)cn1 [Example 210] | 1.85 |  |
